One block for each molecule: values may come before it. *1 amine or outer side, *2 acyl side, *3 side chain or, on linkers, in order; H or OH if unused. Bridges are numbered along the chain shown (N, C = ends). Roman numbers before positions name the chains, in order. Side-chain parts run from the residue outwards. The star is where a group is joined. C18 diacid = O=C(O)CCCCCCCCCCCCCCCCC(=O)*; NMe2Phe = CN(C)[C@@H](Cc1ccccc1)C(=O)*; γGlu = O=C(O)[C@H](CCC(=O)[*:2])N[*:1]; AEEA = NCCOCCOCC(=O)O; Me2Gly = CN(C)CC(=O)*
Columns and labels:
[1] = Insulin peptide degradation by GI extracts in presence of BBI; type: in vitro ADME, Sprague Dawley rats; details: rat; for half-life at 10 µM: male, Sprague Dawley, real gastrointestinal fluid or homogenate
Method: 96 well plates were coated by incubating with 0.4% BSA solution for minimum of 60 min. […] The plates were pre-incubated (before adding GI juice) for 60 min at 37° C. After addition of 30 μl of GI juice, the plates were incubated for 60 min/37° C. on shaker. Samples (40 μl) were taken at 0, 3, 6, 10, 30 and 60 min, stopped with 3 vol. cold 96% EtOH (ethanol) w. 1% HCOOH (formic acid) and centrifuged (4500 rcf for 10 min at 4° C.). The resulting supernatant from the samples were diluted 5 times with the buffer prior to LC-MS analysis. Standard samples (0.1, 0.5, 1.0, 5.0, 10.0 μM) were prepared and treated as the samples. Standard curve was analysed both at the beginning and the end of the sequence. Two replicates of each tested conditions were included. […] The results were plotted against the incubation time. […] GI juice was prepared from male Sprague Dawley rats (200-250 g) by excising approximately 20 cm piece of mid jejunum and rinsing the inside with 2.5 ml 0.9% sodium chloride solution. The sodium chloride solution was collected in a centrifuge tube, pooled from all rats (20) and centrifuged at 4500 rpm./10 min/4° C. The supernatant was aliquoted in tubes and stored at −80° C.

[2] = GLP-1 peptide degradation by GI extracts in presence of BBI; type: in vitro ADME, Sprague Dawley rats; details: half-life with 0.1% BBI divided by half-life without BBI, rat GI juice
Method: 96 well plates were coated by incubating with 0.4% BSA solution for a minimum of 60 min. To each well, 210 μl of buffer (HBSS-HEPES buffer with 0.005% Tween 20 and 0.005% BSA, pH 6.5), 30 μl of a substrate (100 μM GLP-1 peptide in buffer) and 30 μl of BBI (1%) were added. The plates were pre-incubated (before adding GI juice) for 60 min at 37° C. After addition of 30 μl of GI juice, the plates were incubated for 60 min/37° C. on shaker. Samples (40 μl) were taken at 0, 3, 6, 10, 30 and 60 min, stopped with 3 vol. cold 96% EtOH w. 1% HCOOH and centrifuged (4500 rcf for 10 min at 4° C.). The resulting supernatant from the samples were diluted 5 times with the buffer prior to LC-MS analysis. Standard samples (0.1, 0.5, 1.0, 5.0, 10.0 μM) were prepared and treated as the samples. Standard curve was analysed both at the beginning and the end of the sequence. Two replicates of each tested conditions were included. Intact GLP-1 peptide was determined in each sample. The results were plotted against the incubation time. Half-lives of the GLP-1 peptide was determined by nonlinear regression of the results using, for example Graph Pad Prism. The half-lives were expressed relative to the half-life of the GLP-1 peptide without BBI present by dividing the half-lives obtained in the presence of inhibitor with those obtained in the absence of BBI. […]

[3] = Transport of GLP-1 peptide across mucus-producing E12 cell monolayers in the presence of sodium caprate and BBI; type: in vitro ADME; details: for Papp A→B at 100 µM: human
Method: Buffer was then removed and the experiment initiated. […] Receiver samples (200 μl) were taken every 15 min.
In all samples with GLP-1 peptide and mannitol, the concentration of GLP-1 peptide was determined using a LOCI assay (or LC-MS assay) and scintillation counter, respectively.

[4] = pH 7.4, apical to basolateral, 100 μM GLP-1 peptide + 13 mM sodium caprate, without BBI

half-life at 10 µM ([1]; pH 6.5, Half Life of insulin peptide): 1.1 min
half-life at 10 µM ([1]; pH 6.5, Half Life of insulin peptide in presence of 0.1% BBI): > 1000 min
Half Life (fold increase) [1]: >910 fold
Molecule: I: NMe2Phe-VNQHLCGSHLVEALYLVCGERGFHYTPK([AEEA-AEEA-γGlu-C18 diacid])-OH / II: Me2Gly-IVEQCCTSICSLEQLENYCN-OH (disulfide I:6-II:6, I:18-II:19, II:5-II:10) [Insulin 2, N{A1},N{A1}-dimethyl,N{B1},N{B1}-dimethyl,N{Epsilon-B29}-[2-[2-[2-[[2-[2-[2-[[(4S)-4-carboxy-4-(17-carboxyheptadecanoylamino)butanoyl]amino]ethoxy]ethoxy]acetyl]amino]-ethoxy]ethoxy]acetyl]-[GluA14,HisB25],des-ThrB30-Insulin(human)]

Molecule: CC[C@H](C)[C@H](NC(=O)[C@H](Cc1ccccc1)NC(=O)[C@H](CCC(=O)O)NC(=O)[C@H](CCCCNC(=O)COCCOCCNC(=O)COCCOCCNC(=O)CC[C@H](NC(=O)CCCCCCCCCCCCCCCCC(=O)O)C(=O)O)NC(=O)[C@H](C)NC(=O)[C@H](C)NC(=O)[C@H](CCC(N)=O)NC(=O)CNC(=O)[C@H](CCC(=O)O)NC(=O)[C@H](CC(C)C)NC(=O)[C@H](Cc1ccc(O)cc1)NC(=O)[C@H](CO)NC(=O)[C@H](CO)NC(=O)[C@@H](NC(=O)[C@H](CC(=O)O)NC(=O)[C@H](CO)NC(=O)[C@@H](NC(=O)[C@H](Cc1ccccc1)NC(=O)[C@@H](NC(=O)CNC(=O)[C@H](CCC(=O)O)NC(=O)C(C)(C)NC(=O)[C@@H](N)Cc1cnc[nH]1)[C@@H](C)O)[C@@H](C)O)C(C)C)C(=O)N[C@@H](C)C(=O)N[C@@H](Cc1c[nH]c2ccccc12)C(=O)N[C@@H](CC(C)C)C(=O)N[C@H](C(=O)N[C@@H](CCCNC(=N)N)C(=O)NCC(=O)N[C@@H](CCCNC(=N)N)C(=O)NCC(=O)O)C(C)C [GLP-1 peptide 1, N{Epsilon-26}-[2-[2-[2-[[2-[2-[2-[[(4S)-4-carboxy-4-(17-carboxy-heptadecanoylamino)butanoyl]amino]ethoxy]ethoxy]acetyl]amino]ethoxy]ethoxy]acetyl]-[Aib8,Arg34]-GLP-1-(7-37)-peptide]
Half Life (fold increase) [2]: >15 fold
Papp A→B at 100 µM [3, 4]: 0.148 ×10⁻⁶ cm/s
Papp A→B at 100 µM ([3]; pH 7.4, with Bowman Birk inhibitor (BBI) 0.2%, apical to basolateral, 100 μM GLP-1 peptide + 13 mM sodium caprate + 0.2% BBI): 0.319 ×10⁻⁶ cm/s

Molecule: CC[C@H](C)[C@H](NC(=O)[C@H](Cc1ccccc1)NC(=O)[C@H](CCC(=O)O)NC(=O)[C@H](CCCCNC(=O)COCCOCCNC(=O)COCCOCCNC(=O)CC[C@H](NC(=O)CCCCCCCCCOc1ccc(C(=O)O)cc1)C(=O)O)NC(=O)[C@H](C)NC(=O)[C@H](C)NC(=O)[C@H](CCC(N)=O)NC(=O)[C@H](CCC(=O)O)NC(=O)[C@H](CCC(=O)O)NC(=O)[C@H](CC(C)C)NC(=O)[C@H](Cc1ccc(O)cc1)NC(=O)[C@H](CCCCNC(=O)COCCOCCNC(=O)COCCOCCNC(=O)CC[C@H](NC(=O)CCCCCCCCCOc1ccc(C(=O)O)cc1)C(=O)O)NC(=O)[C@H](CO)NC(=O)[C@@H](NC(=O)[C@H](CC(=O)O)NC(=O)[C@H](CO)NC(=O)[C@@H](NC(=O)[C@H](Cc1ccccc1)NC(=O)[C@@H](NC(=O)CNC(=O)[C@H](CCC(=O)O)NC(=O)C(C)(C)NC(=O)[C@@H](N)Cc1c[nH]cn1)[C@@H](C)O)[C@@H](C)O)C(C)C)C(=O)N[C@@H](C)C(=O)N[C@@H](Cc1c[nH]c2ccccc12)C(=O)N[C@@H](CC(C)C)C(=O)N[C@H](C(=O)N[C@@H](CCC(N)=O)C(=O)NCC(=O)N[C@@H](CCCNC(=N)N)C(=O)NCC(=O)O)C(C)C [GLP-1 peptide 2, N{Epsilon-18}-[2-[2-[2-[[2-[2-[2-[[(4S)-4-carboxy-4-[10-(4-carboxyphenoxy)-decanoylamino]butanoyl]amino]ethoxy]ethoxy]acetyl]amino]ethoxy]ethoxy]acetyl], N{Epsilon-26}-[2-[2-[2-[[2-[2-[2-[[(4S)-4-carboxy-4-[10-(4-carboxyphenoxy)decanoylamino]butanoyl]-amino]ethoxy]ethoxy]acetyl]amino]ethoxy]ethoxy]acetyl]-[Aib8,Lys18,Glu22,Gln34]-GLP-1-(7-37)-peptide]
Papp A→B ([3]; pH 7.4, apical to basolateral, 100 μM GLP-1 peptide + 13 mM sodium caprate + 0.2% BBI): 0.438 ×10⁻⁶ cm/s
Papp A→B [3, 4]: 0.389 ×10⁻⁶ cm/s

Source: patent publication US20160106814A1, “Novel Oral Pharmaceutical Composition for Treatment of Diabetes” (NOVO NORDISK A/S, priority 2013, published 2016)
